{"source": "paper PMC10407194", "about": "(Current Research in Insect Science, 2023)", "biological_target": "T1, TcTRPA1 (Tribolium castaneum, UniProt A0A139WJZ5)", "T1 sequence (A0A139WJZ5 1-1242)": "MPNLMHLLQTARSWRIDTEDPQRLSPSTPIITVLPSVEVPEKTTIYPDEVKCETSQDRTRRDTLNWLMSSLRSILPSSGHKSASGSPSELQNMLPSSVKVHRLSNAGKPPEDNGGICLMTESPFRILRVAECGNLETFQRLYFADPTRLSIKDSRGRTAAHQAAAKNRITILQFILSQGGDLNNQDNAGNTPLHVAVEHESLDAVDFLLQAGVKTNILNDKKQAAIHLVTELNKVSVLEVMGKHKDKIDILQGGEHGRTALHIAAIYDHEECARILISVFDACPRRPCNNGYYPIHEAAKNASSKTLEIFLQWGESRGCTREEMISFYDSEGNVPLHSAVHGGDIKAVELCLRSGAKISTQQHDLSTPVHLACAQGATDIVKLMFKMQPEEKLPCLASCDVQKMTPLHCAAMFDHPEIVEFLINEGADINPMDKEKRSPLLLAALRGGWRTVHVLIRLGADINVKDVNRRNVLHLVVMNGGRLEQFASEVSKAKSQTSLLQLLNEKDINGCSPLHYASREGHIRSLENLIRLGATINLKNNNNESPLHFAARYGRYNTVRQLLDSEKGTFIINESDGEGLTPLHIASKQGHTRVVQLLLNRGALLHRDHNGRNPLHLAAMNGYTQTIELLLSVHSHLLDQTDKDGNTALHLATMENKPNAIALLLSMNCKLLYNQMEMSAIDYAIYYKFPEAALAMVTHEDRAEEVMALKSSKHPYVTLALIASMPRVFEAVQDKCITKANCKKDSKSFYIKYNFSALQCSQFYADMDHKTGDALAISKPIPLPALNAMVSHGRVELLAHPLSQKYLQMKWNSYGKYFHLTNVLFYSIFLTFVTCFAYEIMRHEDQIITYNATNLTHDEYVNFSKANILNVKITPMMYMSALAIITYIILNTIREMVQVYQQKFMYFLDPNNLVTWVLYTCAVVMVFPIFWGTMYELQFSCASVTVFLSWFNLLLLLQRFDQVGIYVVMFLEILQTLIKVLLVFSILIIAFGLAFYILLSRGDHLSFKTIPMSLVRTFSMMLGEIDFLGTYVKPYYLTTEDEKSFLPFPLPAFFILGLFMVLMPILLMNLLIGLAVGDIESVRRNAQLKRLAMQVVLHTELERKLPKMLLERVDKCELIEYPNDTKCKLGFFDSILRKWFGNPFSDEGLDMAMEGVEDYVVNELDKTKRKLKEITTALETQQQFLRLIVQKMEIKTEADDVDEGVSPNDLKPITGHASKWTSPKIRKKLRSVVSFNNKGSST", "assay": "Ca2+ influx fluorescence assay", "format": "cell-based"}
{"smiles": "CC(C)=CCCC(C)CC=O", "note": "(stereo not shown) [citronellal]", "values": [{"measurement": "EC50", "value": 69.7, "unit": "µM"}]}
